Assay results: the supplement of paper PMC10307832

Tests used:
Assay in all cases: relative viability (nuclei count vs DMSO), 5 days (fraction); higher = more cells survive
A-427 = tested on: A-427
In short: (§1)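 Lung cancer cell lines in 1536-well plates got either a single drug or a fixed anchor-drug dose together with five library-drug doses (not always all listed) in √10 steps, by pin tool, on the day after seeding. Nuclei were counted after 5 days, and relative viability is the treated-to-vehicle ratio of nuclei counts. Values are medians of duplicate plates.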

EPLC-272H = tested on: EPLC-272H
In short: as §1

HCC-366 = tested on: HCC-366
In short: as §1

HCC-78 = tested on: HCC-78
In short: as §1

HOP-62 = tested on: HOP-62
In short: as §1

LC-2-ad = tested on: LC-2-ad
In short: as §1

LCLC-97TM1 = tested on: LCLC-97TM1
In short: as §1

LU99A = tested on: LU99A
In short: as §1

LXF-289 = tested on: LXF-289
In short: as §1

NCI-H1755 = tested on: NCI-H1755
In short: as §1

NCI-H1792 = tested on: NCI-H1792
In short: as §1

NCI-H1793 = tested on: NCI-H1793
In short: as §1

NCI-H1915 = tested on: NCI-H1915
In short: as §1

NCI-H1944 = tested on: NCI-H1944
In short: as §1

NCI-H1975 = tested on: NCI-H1975
In short: as §1

NCI-H2085 = tested on: NCI-H2085
In short: as §1

NCI-H2170 = tested on: NCI-H2170
In short: as §1

NCI-H358 = tested on: NCI-H358
In short: as §1

NCI-H460 = tested on: NCI-H460
In short: as §1

SW 900 = tested on: SW 900
In short: as §1

## CC1(C)CCC(c2ccc(Cl)cc2)=C(CN2CCN(c3ccc(C(=O)NS(=O)(=O)c4ccc(N[C@H](CCN5CCOCC5)CSc5ccccc5)c(S(=O)(=O)C(F)(F)F)c4)cc3)CC2)C1 [Navitoclax] + NC(=O)Nc1cc(-c2cccc(F)c2)sc1C(=O)N[C@H]1CCCNC1 [AZD7762] (partner 0.2 µM)
A-427; first compound 0.005 µM
  relative viability: 0.79
A-427; first compound 0.01581 µM
  relative viability: 0.822
A-427; first compound 0.05 µM
  relative viability: 0.639
A-427; first compound 0.1581 µM
  relative viability: 0.722
A-427; first compound 0.5 µM
  relative viability: 0.718
EPLC-272H; first compound 0.005 µM
  relative viability: 0.26
EPLC-272H; first compound 0.05 µM
  relative viability: 0.3
EPLC-272H; first compound 0.1581 µM
  relative viability: 0.143
EPLC-272H; first compound 0.5 µM
  relative viability: 0.257
HCC-366; first compound 0.005 µM
  relative viability: 0.27
HCC-366; first compound 0.01581 µM
  relative viability: 0.296
HCC-366; first compound 0.1581 µM
  relative viability: 0.197
HCC-366; first compound 0.5 µM
  relative viability: 0.214
HCC-78; first compound 0.005 µM
  relative viability: 0.985
HCC-78; first compound 0.01581 µM
  relative viability: 0.612
HCC-78; first compound 0.05 µM
  relative viability: 0.508
HCC-78; first compound 0.1581 µM
  relative viability: 0.607
HCC-78; first compound 0.5 µM
  relative viability: 0.667
HOP-62; first compound 0.005 µM
  relative viability: 0.721
HOP-62; first compound 0.01581 µM
  relative viability: 0.694
HOP-62; first compound 0.05 µM
  relative viability: 0.514
HOP-62; first compound 0.1581 µM
  relative viability: 0.512
HOP-62; first compound 0.5 µM
  relative viability: 0.384
LC-2-ad; first compound 0.005 µM
  relative viability: 0.835
LC-2-ad; first compound 0.01581 µM
  relative viability: 0.957
LC-2-ad; first compound 0.05 µM
  relative viability: 0.796
LC-2-ad; first compound 0.1581 µM
  relative viability: 0.815
LC-2-ad; first compound 0.5 µM
  relative viability: 0.822
LCLC-97TM1; first compound 0.005 µM
  relative viability: 0.236
LCLC-97TM1; first compound 0.01581 µM
  relative viability: 0.301
LCLC-97TM1; first compound 0.05 µM
  relative viability: 0.181
LCLC-97TM1; first compound 0.1581 µM
  relative viability: 0.253
LCLC-97TM1; first compound 0.5 µM
  relative viability: 0.22
LU99A; first compound 0.005 µM
  relative viability: 0.414
LU99A; first compound 0.01581 µM
  relative viability: 0.466
LU99A; first compound 0.1581 µM
  relative viability: 0.43
LU99A; first compound 0.5 µM
  relative viability: 0.439
LXF-289; first compound 0.005 µM
  relative viability: 1.11
LXF-289; first compound 0.01581 µM
  relative viability: 1.18
LXF-289; first compound 0.05 µM
  relative viability: 0.924
LXF-289; first compound 0.1581 µM
  relative viability: 1.06
LXF-289; first compound 0.5 µM
  relative viability: 1.04
NCI-H1755; first compound 0.005 µM
  relative viability: 0.426
NCI-H1755; first compound 0.01581 µM
  relative viability: 0.462
NCI-H1755; first compound 0.05 µM
  relative viability: 0.322
NCI-H1755; first compound 0.1581 µM
  relative viability: 0.439
NCI-H1755; first compound 0.5 µM
  relative viability: 0.474
NCI-H1792; first compound 0.005 µM
  relative viability: 0.593
NCI-H1792; first compound 0.01581 µM
  relative viability: 0.77
NCI-H1792; first compound 0.1581 µM
  relative viability: 0.559
NCI-H1792; first compound 0.5 µM
  relative viability: 0.502
NCI-H1793; first compound 0.005 µM
  relative viability: 0.488
NCI-H1793; first compound 0.01581 µM
  relative viability: 0.613
NCI-H1793; first compound 0.1581 µM
  relative viability: 0.402
NCI-H1793; first compound 0.5 µM
  relative viability: 0.246
NCI-H1915; first compound 0.005 µM
  relative viability: 0.726
NCI-H1915; first compound 0.01581 µM
  relative viability: 0.697
NCI-H1915; first compound 0.05 µM
  relative viability: 0.657
NCI-H1915; first compound 0.1581 µM
  relative viability: 0.639
NCI-H1915; first compound 0.5 µM
  relative viability: 0.597
NCI-H1944; first compound 0.005 µM
  relative viability: 0.52
NCI-H1944; first compound 0.01581 µM
  relative viability: 0.637
NCI-H1944; first compound 0.1581 µM
  relative viability: 0.489
NCI-H1944; first compound 0.5 µM
  relative viability: 0.582
NCI-H1975; first compound 0.005 µM
  relative viability: 0.855
NCI-H1975; first compound 0.01581 µM
  relative viability: 0.799
NCI-H1975; first compound 0.05 µM
  relative viability: 0.713
NCI-H1975; first compound 0.1581 µM
  relative viability: 0.752
NCI-H1975; first compound 0.5 µM
  relative viability: 0.646
NCI-H2085; first compound 0.005 µM
  relative viability: 0.941
NCI-H2085; first compound 0.01581 µM
  relative viability: 1.01
NCI-H2085; first compound 0.05 µM
  relative viability: 0.885
NCI-H2085; first compound 0.1581 µM
  relative viability: 1.07
NCI-H2085; first compound 0.5 µM
  relative viability: 0.942
NCI-H2170; first compound 0.005 µM
  relative viability: 0.883
NCI-H2170; first compound 0.01581 µM
  relative viability: 0.912
NCI-H2170; first compound 0.05 µM
  relative viability: 0.845
NCI-H2170; first compound 0.1581 µM
  relative viability: 0.798
NCI-H2170; first compound 0.5 µM
  relative viability: 0.623
NCI-H358; first compound 0.005 µM
  relative viability: 0.566
NCI-H358; first compound 0.01581 µM
  relative viability: 0.712
NCI-H358; first compound 0.05 µM
  relative viability: 0.545
NCI-H358; first compound 0.1581 µM
  relative viability: 0.485
NCI-H358; first compound 0.5 µM
  relative viability: 0.592
NCI-H460; first compound 0.005 µM
  relative viability: 0.575
NCI-H460; first compound 0.01581 µM
  relative viability: 0.622
NCI-H460; first compound 0.05 µM
  relative viability: 0.322
NCI-H460; first compound 0.1581 µM
  relative viability: 0.573
NCI-H460; first compound 0.5 µM
  relative viability: 0.532
SW 900; first compound 0.005 µM
  relative viability: 0.538
SW 900; first compound 0.01581 µM
  relative viability: 0.651
SW 900; first compound 0.1581 µM
  relative viability: 0.573
SW 900; first compound 0.5 µM
  relative viability: 0.476
